# Reference: patent publication US7528252B2, “Derivatives of triazoly-imidazopyridine useful as ligands of the adenosine A2a receptor and their use as medicaments” (Sigma-Tau Industrie Farmaceutiche Riunite S.p.A., priority 2002, dated 2009)
# Read-outs that look alike come from different tables or passages of the source.
# Tests used:
# [1] = target: T1, Cholinetransporter (Homo sapiens, UniProt Q9GZV3); assay: Receptor binding study, Choline transporter; settings: 1 μM; mean values, n = 2; read-out: percent inhibition of control specific binding
# T1 sequence (Q9GZV3 1-580): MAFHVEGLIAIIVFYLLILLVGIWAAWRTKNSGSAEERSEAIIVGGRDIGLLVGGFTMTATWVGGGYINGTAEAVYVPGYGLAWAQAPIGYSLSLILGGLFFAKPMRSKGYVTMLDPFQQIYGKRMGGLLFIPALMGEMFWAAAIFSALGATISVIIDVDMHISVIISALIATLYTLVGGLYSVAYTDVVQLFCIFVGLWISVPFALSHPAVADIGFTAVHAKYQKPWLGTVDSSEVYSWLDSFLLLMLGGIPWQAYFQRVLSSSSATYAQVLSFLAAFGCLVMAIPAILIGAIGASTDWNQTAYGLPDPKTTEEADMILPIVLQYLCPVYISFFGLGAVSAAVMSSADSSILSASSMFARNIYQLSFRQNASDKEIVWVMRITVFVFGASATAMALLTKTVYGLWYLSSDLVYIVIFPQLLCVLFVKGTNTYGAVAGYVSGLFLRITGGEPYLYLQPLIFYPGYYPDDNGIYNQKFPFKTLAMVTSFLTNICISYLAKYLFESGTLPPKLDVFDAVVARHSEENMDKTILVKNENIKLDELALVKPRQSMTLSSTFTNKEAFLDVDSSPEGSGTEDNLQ
# [2] = tested on: α2(non-selective); assay: Receptor binding study, α2; settings: 1 μM; mean values, n = 2
# [3] = target: M4 (Homo sapiens, UniProt P08173); assay: Receptor binding study, M4; settings: mean values, n = 2, read-out: percent inhibition of control specific binding
# [4] = target: 5-HT5A (h) (Homo sapiens, UniProt P47898); assay: Receptor binding study, 5-HT5A; settings: mean values, n = 2, read-out: percent inhibition of control specific binding
# [5] = target: D4.4 (h) (Homo sapiens, UniProt P21917); assay: Receptor binding study, D4.4; settings: mean values, n = 2, read-out: percent inhibition of control specific binding
# [6] = target: β1 (Homo sapiens, UniProt P08588); assay: Receptor binding study, β1; settings: mean values, n = 2, read-out: percent inhibition of control specific binding
# [7] = target: D5 (h) (Homo sapiens, UniProt P21918); assay: Receptor binding study, D5; settings: mean values, n = 2, read-out: percent inhibition of control specific binding
# [8] = target: 5-HT transporter (Homo sapiens, UniProt P31645); assay: Receptor binding study, 5-HT transporter; settings: read-out: percent inhibition of control specific binding
# [9] = target: GABAb (Homo sapiens, UniProt Q9UBS5); assay: Receptor binding study, GABAb; settings: mean values, n = 2, read-out: percent inhibition of control specific binding
# [10] = target: 5-HT2A (Homo sapiens, UniProt P28223); assay: Receptor binding study, 5-HT2A; settings: mean values, n = 2, read-out: percent inhibition of control specific binding
# [11] = tested on: P2X; assay: Receptor binding study, P2X; settings: 1 μM; mean values, n = 2
# [12] = tested on: Opiate (non-selective); assay: Receptor binding study, Opiate (non-selective); settings: 1 μM; mean values, n = 2
# [13] = tested on: NMDA; assay: Receptor binding study, NMDA; settings: 1 μM; mean values, n = 2
# [14] = target: T2, human A2b receptor (Homo sapiens, UniProt P29275); assay: Affinity towards the adenosine A2b receptor ([3H]-DPCPX binding, HEK 293 membranes); settings: read-out: A2b Ki (nM) ± sd
# T2 construct: expressed in transfected cells; host or cells: HEK 293
# T2 sequence (P29275 1-332): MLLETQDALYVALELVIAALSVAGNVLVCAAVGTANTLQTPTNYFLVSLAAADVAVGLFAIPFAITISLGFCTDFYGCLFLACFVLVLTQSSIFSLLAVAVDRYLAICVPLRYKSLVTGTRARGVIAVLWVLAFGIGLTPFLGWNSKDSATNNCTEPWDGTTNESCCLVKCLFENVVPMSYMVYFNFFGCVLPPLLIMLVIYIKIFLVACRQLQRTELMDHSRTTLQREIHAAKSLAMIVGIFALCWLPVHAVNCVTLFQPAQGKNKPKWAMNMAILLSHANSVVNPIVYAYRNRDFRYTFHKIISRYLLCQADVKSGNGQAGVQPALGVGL
# Description: The interactive capacity of each product towards the adenosine A2b receptor was evaluated using membranes from HEK 293 cells stably expressing the human A2b receptor subtype exclusively.
# Non-specific binding was measured in the presence of NECA (50 μM).
# In binding studies for each compound, eight different concentrations (from 10^−5 M to 10^−12 M) were evaluated in order to obtain competition curves. By means of non-linear regression analysis of the competition curves, the IC50 values, which express the binding affinity of each product, were determined. Using the Cheng Prusoff equation (Ki=IC50/1+(L/Kd)) Ki values were calculated through which the affinity of each product studied, for the receptor investigated, is expressed.
# [15] = tested on: P2Y; assay: Receptor binding study, P2Y; settings: 1 μM; mean values, n = 2
# [16] = target: M1 (Homo sapiens, UniProt P11229); assay: Receptor binding study, M1; settings: mean values, n = 2, read-out: percent inhibition of control specific binding
# [17] = target: M2 (Homo sapiens, UniProt P08172); assay: Receptor binding study, M2; settings: mean values, n = 2, read-out: percent inhibition of control specific binding
# [18] = target: T3, M5 (Homo sapiens, UniProt P08912); assay: Receptor binding study, M5; settings: 1 μM; mean values, n = 2; read-out: percent inhibition of control specific binding
# T3 sequence (P08912 1-532): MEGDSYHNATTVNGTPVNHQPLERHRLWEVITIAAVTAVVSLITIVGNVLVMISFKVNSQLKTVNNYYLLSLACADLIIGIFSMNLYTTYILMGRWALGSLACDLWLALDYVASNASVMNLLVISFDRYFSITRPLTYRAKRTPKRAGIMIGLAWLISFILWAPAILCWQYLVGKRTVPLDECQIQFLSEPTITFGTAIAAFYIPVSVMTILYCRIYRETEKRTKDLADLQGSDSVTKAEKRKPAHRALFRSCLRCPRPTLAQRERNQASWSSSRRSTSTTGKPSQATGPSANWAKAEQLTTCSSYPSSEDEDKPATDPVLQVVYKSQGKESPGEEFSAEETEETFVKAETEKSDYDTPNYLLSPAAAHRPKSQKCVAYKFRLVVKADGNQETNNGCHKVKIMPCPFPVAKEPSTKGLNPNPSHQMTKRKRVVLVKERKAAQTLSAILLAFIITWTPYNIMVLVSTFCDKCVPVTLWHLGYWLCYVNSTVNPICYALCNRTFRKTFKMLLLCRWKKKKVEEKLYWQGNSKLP
# [19] = target: 5-HT2C (h) (Homo sapiens, UniProt P28335); assay: Receptor binding study, 5-HT2C; settings: mean values, n = 2, read-out: percent inhibition of control specific binding
# [20] = tested on: BZD (central); assay: Receptor binding study, BZD (central); settings: 1 μM; mean values, n = 2
# [21] = target: D3 (Homo sapiens, UniProt P35462); assay: Receptor binding study, D3; settings: mean values, n = 2, read-out: percent inhibition of control specific binding
# D3, sequence (P35462 whole entry): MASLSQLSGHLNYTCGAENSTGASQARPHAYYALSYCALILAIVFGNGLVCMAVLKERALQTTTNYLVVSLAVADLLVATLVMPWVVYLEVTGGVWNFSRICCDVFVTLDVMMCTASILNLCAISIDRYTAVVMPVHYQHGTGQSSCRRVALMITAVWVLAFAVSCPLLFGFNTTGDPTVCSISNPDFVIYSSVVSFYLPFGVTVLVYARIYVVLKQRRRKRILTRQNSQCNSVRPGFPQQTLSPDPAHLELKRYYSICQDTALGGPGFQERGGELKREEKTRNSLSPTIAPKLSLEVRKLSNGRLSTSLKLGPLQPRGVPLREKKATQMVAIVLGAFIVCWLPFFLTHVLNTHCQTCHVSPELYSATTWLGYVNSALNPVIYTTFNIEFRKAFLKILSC
# D4.4 (h), sequence (P21917 whole entry): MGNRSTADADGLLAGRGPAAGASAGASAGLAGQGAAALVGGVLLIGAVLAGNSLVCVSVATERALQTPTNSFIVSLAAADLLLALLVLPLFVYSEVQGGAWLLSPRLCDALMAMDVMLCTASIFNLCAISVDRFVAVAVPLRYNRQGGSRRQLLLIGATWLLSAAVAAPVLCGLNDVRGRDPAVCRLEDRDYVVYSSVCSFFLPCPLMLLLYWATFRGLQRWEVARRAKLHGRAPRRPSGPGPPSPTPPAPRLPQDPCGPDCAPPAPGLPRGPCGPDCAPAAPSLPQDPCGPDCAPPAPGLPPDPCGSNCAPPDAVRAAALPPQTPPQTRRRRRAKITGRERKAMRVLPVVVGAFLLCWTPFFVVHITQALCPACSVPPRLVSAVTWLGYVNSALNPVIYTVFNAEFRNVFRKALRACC
# 5-HT transporter, sequence (P31645 whole entry, species assumed): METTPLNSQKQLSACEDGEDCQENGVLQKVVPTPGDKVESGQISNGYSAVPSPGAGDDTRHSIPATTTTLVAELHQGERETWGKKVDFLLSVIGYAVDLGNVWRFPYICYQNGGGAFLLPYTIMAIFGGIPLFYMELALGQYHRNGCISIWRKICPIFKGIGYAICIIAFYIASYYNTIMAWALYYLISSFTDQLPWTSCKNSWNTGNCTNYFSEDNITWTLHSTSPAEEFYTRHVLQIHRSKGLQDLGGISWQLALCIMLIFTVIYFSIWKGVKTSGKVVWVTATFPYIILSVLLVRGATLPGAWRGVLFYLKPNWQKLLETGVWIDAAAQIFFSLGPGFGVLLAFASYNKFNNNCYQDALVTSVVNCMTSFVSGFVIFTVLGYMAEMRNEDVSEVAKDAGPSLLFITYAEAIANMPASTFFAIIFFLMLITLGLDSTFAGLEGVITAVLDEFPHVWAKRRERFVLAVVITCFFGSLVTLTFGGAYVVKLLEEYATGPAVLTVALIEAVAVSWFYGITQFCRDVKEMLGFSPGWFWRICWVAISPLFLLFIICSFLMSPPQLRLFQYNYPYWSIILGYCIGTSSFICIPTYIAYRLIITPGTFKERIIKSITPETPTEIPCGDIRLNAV
# β1, sequence (P08588 whole entry): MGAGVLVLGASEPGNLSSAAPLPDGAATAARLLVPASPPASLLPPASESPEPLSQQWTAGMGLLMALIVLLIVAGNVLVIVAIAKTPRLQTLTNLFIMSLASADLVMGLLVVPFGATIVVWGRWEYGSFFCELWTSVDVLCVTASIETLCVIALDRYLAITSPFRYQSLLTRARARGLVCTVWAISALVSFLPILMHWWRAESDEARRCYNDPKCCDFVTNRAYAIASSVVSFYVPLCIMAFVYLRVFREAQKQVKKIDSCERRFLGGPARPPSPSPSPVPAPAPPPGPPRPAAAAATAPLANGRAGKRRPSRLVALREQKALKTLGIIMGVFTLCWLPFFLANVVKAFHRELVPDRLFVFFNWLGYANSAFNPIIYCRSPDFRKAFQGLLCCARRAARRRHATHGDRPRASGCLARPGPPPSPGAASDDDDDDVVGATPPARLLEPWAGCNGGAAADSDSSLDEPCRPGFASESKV
# 5-HT2A, sequence (P28223 whole entry, species assumed): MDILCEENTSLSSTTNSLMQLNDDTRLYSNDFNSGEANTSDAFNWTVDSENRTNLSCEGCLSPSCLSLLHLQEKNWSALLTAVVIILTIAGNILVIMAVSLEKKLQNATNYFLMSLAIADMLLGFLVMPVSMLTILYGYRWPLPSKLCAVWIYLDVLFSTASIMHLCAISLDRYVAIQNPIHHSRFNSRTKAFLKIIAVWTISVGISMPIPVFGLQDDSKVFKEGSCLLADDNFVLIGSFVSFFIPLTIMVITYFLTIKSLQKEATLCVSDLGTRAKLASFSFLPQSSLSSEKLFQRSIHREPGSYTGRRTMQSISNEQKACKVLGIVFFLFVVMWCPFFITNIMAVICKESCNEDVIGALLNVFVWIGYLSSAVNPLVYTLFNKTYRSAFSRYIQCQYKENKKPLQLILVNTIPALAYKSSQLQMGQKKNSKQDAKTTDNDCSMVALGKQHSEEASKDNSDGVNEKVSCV
# 5-HT5A (h), sequence (P47898 whole entry): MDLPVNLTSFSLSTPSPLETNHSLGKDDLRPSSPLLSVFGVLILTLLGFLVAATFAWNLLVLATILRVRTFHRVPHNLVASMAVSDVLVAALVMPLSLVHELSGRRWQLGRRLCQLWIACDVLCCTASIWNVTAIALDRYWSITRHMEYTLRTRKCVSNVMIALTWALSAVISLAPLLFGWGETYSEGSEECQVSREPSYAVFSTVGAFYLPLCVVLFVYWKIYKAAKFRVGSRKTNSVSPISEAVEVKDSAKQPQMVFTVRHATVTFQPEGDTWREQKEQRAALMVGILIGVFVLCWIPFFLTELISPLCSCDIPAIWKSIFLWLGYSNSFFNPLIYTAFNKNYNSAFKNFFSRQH
# D5 (h), sequence (P21918 whole entry): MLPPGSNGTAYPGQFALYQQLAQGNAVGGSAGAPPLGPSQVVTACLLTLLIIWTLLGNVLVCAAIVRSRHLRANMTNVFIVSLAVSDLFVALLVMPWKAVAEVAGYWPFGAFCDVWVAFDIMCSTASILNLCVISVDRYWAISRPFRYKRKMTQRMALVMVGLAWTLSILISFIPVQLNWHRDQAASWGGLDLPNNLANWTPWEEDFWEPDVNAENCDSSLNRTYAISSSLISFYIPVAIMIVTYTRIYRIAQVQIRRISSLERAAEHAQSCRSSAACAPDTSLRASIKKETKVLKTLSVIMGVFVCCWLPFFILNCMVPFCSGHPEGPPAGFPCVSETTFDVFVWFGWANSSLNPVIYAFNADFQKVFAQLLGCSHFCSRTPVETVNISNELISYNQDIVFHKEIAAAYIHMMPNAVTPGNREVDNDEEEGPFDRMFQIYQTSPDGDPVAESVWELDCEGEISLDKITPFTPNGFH
# M1, sequence (P11229 whole entry): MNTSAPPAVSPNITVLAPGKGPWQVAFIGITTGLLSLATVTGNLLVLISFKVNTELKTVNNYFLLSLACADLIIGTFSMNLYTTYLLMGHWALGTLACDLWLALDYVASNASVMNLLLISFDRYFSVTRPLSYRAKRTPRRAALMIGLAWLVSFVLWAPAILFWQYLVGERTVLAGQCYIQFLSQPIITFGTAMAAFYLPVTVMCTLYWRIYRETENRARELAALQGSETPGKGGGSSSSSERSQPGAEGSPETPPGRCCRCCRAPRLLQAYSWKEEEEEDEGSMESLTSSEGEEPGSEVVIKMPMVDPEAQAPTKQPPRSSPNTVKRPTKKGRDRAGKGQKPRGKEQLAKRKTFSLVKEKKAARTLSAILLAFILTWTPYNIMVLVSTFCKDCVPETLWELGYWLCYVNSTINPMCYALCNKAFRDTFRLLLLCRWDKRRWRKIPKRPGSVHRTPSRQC
# M4, sequence (P08173 whole entry): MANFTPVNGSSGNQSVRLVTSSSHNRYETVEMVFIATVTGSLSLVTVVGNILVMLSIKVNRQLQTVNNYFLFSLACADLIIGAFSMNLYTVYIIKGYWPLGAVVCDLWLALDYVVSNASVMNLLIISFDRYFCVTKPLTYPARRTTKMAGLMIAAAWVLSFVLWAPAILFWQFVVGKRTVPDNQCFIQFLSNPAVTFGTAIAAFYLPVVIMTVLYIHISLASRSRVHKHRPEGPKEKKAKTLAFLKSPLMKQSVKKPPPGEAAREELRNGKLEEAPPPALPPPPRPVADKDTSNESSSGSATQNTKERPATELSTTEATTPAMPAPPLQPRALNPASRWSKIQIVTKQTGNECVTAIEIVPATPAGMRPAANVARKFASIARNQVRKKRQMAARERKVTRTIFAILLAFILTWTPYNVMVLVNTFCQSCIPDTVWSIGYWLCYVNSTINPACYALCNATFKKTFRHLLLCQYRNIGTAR
# M2, sequence (P08172 whole entry): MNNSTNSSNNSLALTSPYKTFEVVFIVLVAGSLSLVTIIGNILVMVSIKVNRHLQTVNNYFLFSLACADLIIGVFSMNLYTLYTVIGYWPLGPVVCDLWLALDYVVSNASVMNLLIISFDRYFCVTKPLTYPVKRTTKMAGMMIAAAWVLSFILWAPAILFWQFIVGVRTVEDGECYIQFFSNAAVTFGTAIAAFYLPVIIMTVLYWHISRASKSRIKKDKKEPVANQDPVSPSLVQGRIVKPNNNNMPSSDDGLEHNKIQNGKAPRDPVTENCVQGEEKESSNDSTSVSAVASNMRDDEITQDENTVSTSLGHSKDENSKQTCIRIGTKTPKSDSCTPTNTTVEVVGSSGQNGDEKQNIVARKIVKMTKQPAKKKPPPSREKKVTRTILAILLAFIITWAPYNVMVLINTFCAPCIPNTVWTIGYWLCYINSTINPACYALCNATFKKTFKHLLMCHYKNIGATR
smiles,measurement,setting,value
"CCCCCc1nc(N)c2nc(-n3nccn3)n(C)c2n1 [ST 2097, 9-methyl-2-pentyl-8-(2H-1,2,3-triazol-2-yl)-9H-purine-6-ylamine]",inhibition at 1 µM,[1],< 10%
same,percent inhibition of control specific binding,[2],— (The symbol — indicates an inhibition of less than 10%.)
same,inhibition at 1 µM,[3],< 10%
same,inhibition at 1 µM,[4],< 10%
same,inhibition at 1 µM,[5],< 10%
same,inhibition at 1 µM,[6],< 10%
same,inhibition at 1 µM,[7],< 10%
same,inhibition at 1 µM,[8],13%
same,inhibition at 1 µM,[9],< 10%
same,inhibition at 1 µM,[10],< 10%
same,percent inhibition of control specific binding,[11],— (The symbol — indicates an inhibition of less than 10%.)
same,percent inhibition of control specific binding,[12],— (The symbol — indicates an inhibition of less than 10%.)
same,percent inhibition of control specific binding,[13],— (The symbol — indicates an inhibition of less than 10%.)
same,Ki,[14],153 ± 13 nM
same,percent inhibition of control specific binding,[15],— (The symbol — indicates an inhibition of less than 10%.)
same,inhibition at 1 µM,[16],< 10%
same,inhibition at 1 µM,[17],< 10%
same,inhibition at 1 µM,[18],< 10%
same,inhibition at 1 µM,[19],< 10%
same,percent inhibition of control specific binding,[20],— (The symbol — indicates an inhibition of less than 10%.)
same,inhibition at 1 µM,[21],< 10%
"CCCCc1nc(N)c2nc(-n3nccn3)n(C)c2n1 [ST 1535, 2-butyl-9-methyl-8-(2H-1,2,3-triazol-2-yl)-9H-purine-6-ylamine]",inhibition at 1 µM,[1],< 10%
same,percent inhibition of control specific binding,[2],— (The symbol — indicates an inhibition of less than 10%.)
same,inhibition at 1 µM,[3],< 10%
same,inhibition at 1 µM,[4],< 10%
same,inhibition at 1 µM,[5],< 10%
same,inhibition at 1 µM,[6],< 10%
same,inhibition at 1 µM,[7],< 10%
same,inhibition at 1 µM,"[8]; 1 μM, mean values, n = 2, class symbol",< 10%
same,inhibition at 1 µM,[9],< 10%
same,inhibition at 1 µM,[10],< 10%
same,percent inhibition of control specific binding,[11],— (The symbol — indicates an inhibition of less than 10%.)
same,percent inhibition of control specific binding,[12],— (The symbol — indicates an inhibition of less than 10%.)
same,percent inhibition of control specific binding,[13],— (The symbol — indicates an inhibition of less than 10%.)
same,Ki,[14],627 ± 45 nM
same,percent inhibition of control specific binding,[15],— (The symbol — indicates an inhibition of less than 10%.)
same,inhibition at 1 µM,[16],< 10%
same,inhibition at 1 µM,[17],< 10%
same,inhibition at 1 µM,[18],< 10%
same,inhibition at 1 µM,[19],< 10%
same,percent inhibition of control specific binding,[20],— (The symbol — indicates an inhibition of less than 10%.)
same,inhibition at 1 µM,[21],< 10%
